Data set [1] is described as follows: Hoechst 33342 nuclear staining (48 h read-out). The class given is cell-based. In short, it runs like this: (§1)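 Adherent cells pre-spread 24 h before dosing, suspension cells dosed at seeding; compounds at 0.001 μM-10 μM final, 48 h at culture conditions. Hoechst 33342 (2-5 μg/ml) added for 30 min, then fluorescence microscopy scoring of apoptotic nuclear fraction and apoptosis-specific morphology, reported as scores A-D.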

The subject of data set [2] is tumor cells. As to the kind of experiment: Hoechst 33342 nuclear staining (48 h read-out). The data set is classed as cell-based. The method, boiled down:
as §1

Data set [3] is described as follows: Mitochondrial membrane potential, JC-1 (read-out 48 h). The class given is cell-based. The settings on record: PBL, JC-1, 48 h. The method, boiled down: (§2)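 Tumor cells were treated with test compounds (adherent cells after 24 h of attachment, suspension cells immediately), medium holding up to 5% DMSO. After 48 h, JC-1 (2-5 μg/ml in added medium) was applied for 30 min. Fluorescence microscopy (FITC/TRITC filters) scored the fraction of cells with dissipated mitochondrial membrane potential as categories A-D.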

Data set [4] has as its system tumor cells. The description is as above. The data set is classed as cell-based. The settings on record: JC-1, 48 h. The method, boiled down:
as §2

Data set [5] can be described thus: MTS proliferation assay (72 h read-out). The data set is classed as cell-based. Conditions: MRC5 cells. The method, boiled down:
(§3)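 Viability was read by MTS absorbance at 492 nm after 3 h with reagent. Before that, cells plated a day earlier at 1.5×10^3–10^4 per well had been incubated with test compound at final concentrations of 0.001–10 μM for 72 h; activity is given as category scores A–D.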

Data set [6] relates to tumor cells. As to the kind of experiment: MTS proliferation assay (72 h read-out). The class given is cell-based. In short, it runs like this:
as §3
Background: Formazan colour is commonly taken as a measure of viable cells.

A further data set relates to H460. As to the kind of experiment: Colony Forming Units (read-out 6 days), H460. The data set is classed as cell-based, human. The settings on record: colonies containing more than 30 cells, read-out: Colony Forming Units, score based on IC50, H460. The method, then: (§4) Appropriate numbers of cells (100-150 cells, dependent on the cell type) are being seeded out in 1 ml complete medium into 6-well plates and allowed to attach for 48 h. The compounds are added after 48 h in 500 μl solution. The concentrations are in the range of 0.001 μM-3 μM. Control plates receive the same volume of medium containing the appropriate amount of DMSO. The plates are incubated for 5-7 days at cell culture conditions and subsequently scored for growth of colonies (containing more than 30 cells) by using a microscope.

The next data set concerns HeLa. As to the kind of experiment: Colony Forming Units (read-out 6 days), HeLa. The data set is classed as cell-based, human. Conditions: colonies containing more than 30 cells, read-out: Colony Forming Units, score based on IC50, HeLa. As to the method:
as §4

Where [7] appears, read: Homo sapiens, MRC5 cells, read-out: Hoechst 33342 nuclear staining EC50, MRC5.
Setting [8] is: PBL, read-out: Hoechst 33342 nuclear staining EC50, PBL.
The mark [9] stands for this setting: Homo sapiens, HeLa cells, read-out: Hoechst 33342 nuclear staining EC50, HeLa.
[10] abbreviates: Homo sapiens, Jurkat cells, read-out: Hoechst 33342 nuclear staining EC50, Jurkat.
The mark [11] stands for this setting: Jily cells, read-out: Hoechst 33342 nuclear staining EC50, Jily.
[12] abbreviates: Homo sapiens, HeLa cells, read-out: Mitochondrial membrane potential (read-out 48 h) HeLa.
[13] abbreviates: Homo sapiens, Jurkat cells, read-out: Mitochondrial membrane potential (read-out 48 h) Jurkat.
Setting [14] is: Homo sapiens, MCF7 cells, read-out: Mitochondrial membrane potential (read-out 48 h) MCF7.
[15] abbreviates: Jily cells, read-out: Mitochondrial membrane potential (read-out 48 h) Jily.
[16] abbreviates: Homo sapiens, HT-1080, HT1080 cells, read-out: MTS proliferation assay IC50, HT1080.
The mark [17] stands for this setting: Homo sapiens, HeLa cells, read-out: MTS proliferation assay IC50, HeLa.
Setting [18] is: Jily cells, read-out: MTS proliferation assay IC50, Jily.
The mark [19] stands for this setting: Homo sapiens, Jurkat cells, read-out: MTS proliferation assay IC50, Jurkat.

Where two headings read alike, the source gives them in different places.

What is called melting point is the temperature, or range, at which the solid turns liquid. `CCOc1ccc(N)cc1C(=O)c1oc2ccc(Cl)cc2c1N` [Example 7] returned a melting point of 144 to 146 °C. In data set [1] (setting [7]), the EC50 was greater than 1000 nM. Also, the EC50 in data set [1] (setting [8]) was greater than 1000 nM. In addition, the EC50 in the data set on tumor cells [2] (setting [9]) fell in the range of 100 to 1000 nM. In addition, the EC50 in the data set with tumor cells [2] (setting [10]) lay within 100 to 1000 nM. Besides, the EC50 in the data set with tumor cells [2] (setting [11]) was in the range of 100 to 1000 nM. Further, in data set [3], the EC50 is greater than 1000 nM. Further, the EC50 with tumor cells [4] (setting [12]) lay in the range of 100 to 1000 nM. The EC50 in the data set on tumor cells [4] (setting [13]) is 100 to 1000 nM. The EC50 with tumor cells [4] (setting [14]) was greater than 1000 nM. Further, the EC50 in the data set on tumor cells [4] (setting [15]) was in the range of 100 to 1000 nM. In addition, the IC50 in data set [5] (Homo sapiens) is greater than 1000 nM. In the data set on tumor cells [6] (setting [16]), the IC50 is 100 to 1000 nM. For the same molecule, in the data set with tumor cells [6] (setting [17]), the IC50 lay within 100 to 1000 nM. In addition, the IC50 with tumor cells [6] (setting [18]) was in the range of 100 to 1000 nM.
Molecule `Cc1ccc(OC(C)C)c(C(=O)c2oc3ccc(Cl)cc3c2N)c1` [Example 16] displayed a melting point of 110 to 112 °C. Also, in [1] (setting [7]), the EC50 was in the range of 10 to 100 nM. Further, in data set [1] (setting [8]), the EC50 was greater than 1000 nM. Also, the EC50 with tumor cells [2] (setting [9]) lay within 10 to 100 nM. In addition, in the data set on tumor cells [2] (setting [10]), the EC50 was in the range of 10 to 100 nM. The EC50 in the data set with tumor cells [2] (setting [11]) lay within 10 to 100 nM. For the same molecule, the EC50 in data set [3] was greater than 1000 nM. Besides, the EC50 in the data set on tumor cells [4] (setting [12]) lay within 10 to 100 nM. Also, the EC50 in the data set with tumor cells [4] (setting [13]) lay in the range of 10 to 100 nM. For the same molecule, in the data set with tumor cells [4] (setting [14]), the EC50 lay within 10 to 100 nM. The EC50 in the data set with tumor cells [4] (setting [15]) was 10 to 100 nM. Further, in data set [5] (Homo sapiens), the IC50 is 10 to 100 nM. The IC50 in the data set on tumor cells [6] (setting [16]) was 10 to 100 nM. For the same molecule, the IC50 with tumor cells [6] (setting [17]) fell in the range of 10 to 100 nM. Moreover, the IC50 in the data set with tumor cells [6] (setting [19]) was less than 10 nM. For the same molecule, the IC50 in the data set on tumor cells [6] (setting [18]) was less than 10 nM.
In the case of `CCOc1ccc(Cl)cc1C(=O)c1oc2ccc(Cl)cc2c1N` [Example 17], the melting point was in the range of 140 to 142 °C. In data set [1] (setting [7]), the EC50 lay within 10 to 100 nM. Further, in data set [1] (setting [8]), the EC50 was greater than 1000 nM. For the same molecule, the EC50 with tumor cells [2] (setting [9]) was in the range of 10 to 100 nM. Also, the EC50 in the data set with tumor cells [2] (setting [10]) lay in the range of 10 to 100 nM. Further, the EC50 in the data set with tumor cells [2] (setting [11]) was 10 to 100 nM. For the same molecule, the EC50 in data set [3] is greater than 1000 nM. Besides, the EC50 with tumor cells [4] (setting [12]) was in the range of 10 to 100 nM. The EC50 in the data set with tumor cells [4] (setting [13]) lay in the range of 10 to 100 nM. The EC50 in the data set on tumor cells [4] (setting [14]) is 10 to 100 nM. Besides, the EC50 in the data set on tumor cells [4] (setting [15]) lay in the range of 10 to 100 nM. Besides, the IC50 in data set [5] (Homo sapiens) is less than 10 nM. Besides, the IC50 in the data set on tumor cells [6] (setting [16]) is less than 10 nM. Moreover, the IC50 in the data set on tumor cells [6] (setting [17]) was in the range of 10 to 100 nM. For the same molecule, the IC50 in the data set on tumor cells [6] (setting [19]) was less than 10 nM. For the same molecule, the IC50 with tumor cells [6] (setting [18]) is less than 10 nM.
Molecule `CCOc1ccc(C(=O)OC)cc1C(=O)c1oc2ccc(Cl)cc2c1N` [Example 20] returned a melting point of 136 to 138 °C. In data set [1] (setting [7]), the EC50 is greater than 1000 nM. Besides, in [1] (setting [8]), the EC50 was greater than 1000 nM. Moreover, the EC50 in the data set on tumor cells [2] (setting [9]) was 100 to 1000 nM. In addition, the EC50 in the data set with tumor cells [2] (setting [10]) fell in the range of 10 to 100 nM. In addition, in the data set on tumor cells [2] (setting [11]), the EC50 is 10 to 100 nM. In data set [3], the EC50 is greater than 1000 nM. The EC50 in the data set with tumor cells [4] (setting [12]) was 100 to 1000 nM. Also, the EC50 in the data set on tumor cells [4] (setting [13]) is 10 to 100 nM. Further, the EC50 in the data set on tumor cells [4] (setting [14]) was 100 to 1000 nM. Also, the EC50 in the data set on tumor cells [4] (setting [15]) lay within 10 to 100 nM. In addition, in the data set on tumor cells [6] (setting [16]), the IC50 was 10 to 100 nM. For the same molecule, the IC50 in the data set on tumor cells [6] (setting [17]) lay in the range of 100 to 1000 nM. For the same molecule, in the data set with tumor cells [6] (setting [19]), the IC50 lay in the range of 10 to 100 nM. Moreover, the IC50 with tumor cells [6] (setting [18]) lay in the range of 10 to 100 nM.
As for `CCOc1ccc(F)cc1C(=O)c1oc2ccc(O)cc2c1N` [Example 75], the EC50 in data set [1] (MRC5 cells, read-out: Hoechst 33342 nuclear staining EC50, MRC5) was less than 10 nM; in data set [1] (setting [8]) it was greater than 1000 nM; with tumor cells [2] (HeLa cells, read-out: Hoechst 33342 nuclear staining EC50, HeLa), less than 10 nM; in the data set on tumor cells [2] (setting [11]), less than 10 nM; in the data set on tumor cells [2] (Jurkat cells, read-out: Hoechst 33342 nuclear staining EC50, Jurkat), less than 10 nM; in data set [3] it was greater than 1000 nM. Also, the EC50 with tumor cells [4] (HeLa cells, read-out: Mitochondrial membrane potential (read-out 48 h) HeLa) was less than 10 nM; in the data set with tumor cells [4] (setting [15]) it was less than 10 nM; in the data set on tumor cells [4] (Jurkat cells, read-out: Mitochondrial membrane potential (read-out 48 h) Jurkat) it was less than 10 nM; with tumor cells [4] (MCF7 cells, read-out: Mitochondrial membrane potential (read-out 48 h) MCF7) it was 10 to 100 nM. Further, the IC50 in [5] is less than 10 nM; in the data set with tumor cells [6] (HT1080 cells, read-out: MTS proliferation assay IC50, HT1080) it was less than 10 nM; with tumor cells [6] (HeLa cells, read-out: MTS proliferation assay IC50, HeLa), 10 to 100 nM; in the data set on tumor cells [6] (setting [18]), less than 10 nM; with tumor cells [6] (Jurkat cells, read-out: MTS proliferation assay IC50, Jurkat) it was less than 10 nM; with H460 it was 10 to 100 nM. Further, in the data set on HeLa, the IC50 lay in the range of 10 to 100 nM.
